# In US12129223B2, “Lipids for use in lipid nanoparticle formulations” (Acuitas Therapeutics, Inc., priority 2021, dated 2024):
# Key:
# [1] = Determination of pKa of formulated lipids (TNS fluorescence assay in lipid nanoparticles); assay type: physicochemical; settings: lipid nanoparticles (compound/DSPC/cholesterol/PEG-lipid), lipid formulated in LNP (lipid/DSPC/cholesterol/PEG-lipid), pH at half-maximal intensity
# Description: As described elsewhere, the pKa of formulated lipids is correlated with the effectiveness of LNPs for delivery of nucleic acids (see Jayaraman et al, Angewandte Chemie, International Edition (2012), 51(34), 8529-8533; Semple et al, Nature Biotechnology 28, 172-176 (2010)). In some embodiments, the preferred range of pKa is ˜5 to ˜7. The pKa of each lipid is determined in lipid nanoparticles using an assay based on fluorescence of 2-(p-toluidino)-6-napthalene sulfonic acid (TNS). Lipid nanoparticles comprising compound of structure (I)/DSPC/cholesterol/PEG-lipid (50/10/38.5/1.5 or 47.5:10:40.7:1.8 mol %) in PBS at a concentration of 0.4 mM total lipid are prepared using the in-line process as described in Example 1. TNS is prepared as a 100 μM stock solution in distilled water. Vesicles are diluted to 24 μM lipid in 2 mL of buffered solutions containing 10 mM HEPES, 10 mM MES, 10 mM ammonium acetate, and 130 mM NaCl, where the pH ranged from 2.5 to 11. An aliquot of the TNS solution is added to give a final concentration of 1 μM and following vortex mixing fluorescence intensity is measured at room temperature in a SLM Aminco Series 2 Luminescence Spectrophotometer using excitation and emission wavelengths of 321 nm and 445 nm. A sigmoidal best fit analysis is applied to the fluorescence data and the pKa is measured as the pH giving rise to half-maximal fluorescence intensity.
# [2] = system: human IgG in mouse serum; assay: Immunoglobulin G (IgG) mRNA in vivo evaluation using lipid nanoparticle compositions; set-up: species or system mice; settings: LNP with IgG mRNA, tail vein injection, serum 24 hours after administration; for Serum IgG @ 0.3 mg/kg: 0.3 mg mRNA/kg; for Serum IgG @ 1.0 mg/kg: 1.0 mg mRNA/kg
# Description: (§1) A lipid of structure (I), DSPC, cholesterol and PEG-lipid are solubilized in ethanol at a molar ratio of 50:10:38.5:1.5 or 47.5:10:40.7:1.8. Lipid nanoparticles (LNP) are prepared at a total lipid to mRNA weight ratio of approximately 10:1 to 40:1. Briefly, the mRNA is diluted to 0.2 mg/mL in 10 to 50 mM citrate buffer, pH 4 or 10 to 25 mM acetate buffer, pH 4. Syringe pumps are used to mix the ethanolic lipid solution with the mRNA aqueous solution at a ratio of about 1:5 to 1:3 (vol/vol) with total flow rates above 15 mL/min. The ethanol is then removed and the external buffer replaced with PBS by dialysis. Finally, the lipid nanoparticles are filtered through a 0.2 µm pore sterile filter.
# Studies are performed in 6-8 week old CD-1/ICR mice (Envigo) according to guidelines established by an institutional animal care committee (ACC) and the Canadian Council on Animal Care (CCAC). Varying doses of mRNA-lipid nanoparticle are systemically administered by tail vein injection and animals euthanized at a specific time point (e.g., 24 hours) post-administration. The whole blood is collected, and the serum subsequentially separated by centrifuging the tubes of the whole blood at 2000×g for 10 minutes at 4° C. and stored at −80° C. until use for analysis.
# For immunoglobulin G (IgG) ELISA (Life Diagnostics Human IgG ELISA kit), the serum samples are diluted at 100 to 15000 folds with 1×diluent solution. 100 μL of diluted serum is dispensed into anti-human IgG coated 96-well plate in duplicate alongside human IgG standards and incubated in a plate shaker at 150 rpm at 25° C. for 45 minutes. The wells are washed 5 times with 1× wash solution using a plate washer (400 μL/well). 100 μL of HRP conjugate is added into each well and incubated in a plate shaker at the same condition above. The wells are washed 5 times again with 1× wash solution using a plate washer (400 μL/well). 100 μL of TMB reagent is added into each well and incubated in a plate shaker at the same condition above. The reaction is stopped by adding 100 μL of Stop solution to each well. The absorbance is read at 450 nm (A450) with a microplate reader. The amount of human IgG in mouse serum is determined by plotting A450 values for the assay standard against human IgG concentration.
# (§2) Representative compounds of the disclosure shown in Table 2 were formulated using the following molar ratio: 50% cationic lipid/10% distearoylphosphatidylcholine (DSPC)/38.5% Cholesterol/1.5% PEG lipid 2-[2-(ω-methoxy(polyethyleneglycol2000)ethoxy]-N,N-ditetradecyl acetamide) or 47.5% cationic lipid/10% DSPC/40.7% Cholesterol/1.8% PEG lipid. Relative activity was determined by measuring luciferase expression in the liver 4 hours following administration via tail vein injection as described in Example 1 or by measuring the amount of human IgG in mouse serum as described in example 2. The activity was compared at a dose of 1.0 or 0.5 or 0.3 mg mRNA/kg and expressed as ng luciferase/g liver measured 4 hours after administration, as described in Example 1 or as μg IgG/mL serum measured 24 hours after administration, as described in Example 2. Compound numbers in Table 2 refer to the compound numbers of Table 1.
# [3] = system: luciferase expression in the liver; assay: Luciferase mRNA in vivo evaluation using lipid nanoparticle compositions; set-up: species or system mice; settings: LNP with FLuc mRNA, tail vein injection, ng luciferase/g liver 4 hours after administration; for Liver Luc @ 0.3 mg/kg: 0.3 mg mRNA/kg; for Liver Luc @ 1.0 mg/kg: 1.0 mg mRNA/kg
# Description: as §1
# Studies are performed in 6-8 week old female C57BL/6 mice (Charles River) 8-10 week old CD-1 (Harlan) mice (Charles River) according to guidelines established by an institutional animal care committee (ACC) and the Canadian Council on Animal Care (CCAC). Varying doses of mRNA-lipid nanoparticle are systemically administered by tail vein injection and animals euthanized at a specific time point (e.g., 4 hours) post-administration. Liver and spleen are collected in pre-weighed tubes, weights determined, immediately snap frozen in liquid nitrogen and stored at −80° C. until processing for analysis.
# For liver, approximately 50 mg is dissected for analyses in a 2 mL FastPrep tubes (MP Biomedicals, Solon OH). ¼″ ceramic sphere (MP Biomedicals) is added to each tube and 500 μL of Glo Lysis Buffer—GLB (Promega, Madison WI) equilibrated to room temperature is added to liver tissue. Liver tissues are homogenized with the FastPrep24 instrument (MP Biomedicals) at 2×6.0 m/s for 15 seconds. Homogenate is incubated at room temperature for 5 minutes prior to a 1:4 dilution in GLB and assessed using SteadyGlo Luciferase assay system (Promega). Specifically, 50 μL of diluted tissue homogenate is reacted with 50 μL of SteadyGlo substrate, shaken for 10 seconds followed by 5 minute incubation and then quantitated using a CentroXS^3 LB 960 luminometer (Berthold Technologies, Germany). The amount of protein assayed is determined by using the BCA protein assay kit (Pierce, Rockford, IL). Relative luminescence units (RLU) are then normalized to total μg protein assayed. To convert RLU to ng luciferase a standard curve is generated with QuantiLum Recombinant Luciferase (Promega).
# The FLuc mRNA (L-6107) from Trilink Biotechnologies will express a luciferase protein, originally isolated from the firefly, Photinus pyralis. FLuc is commonly used in mammalian cell culture to measure both gene expression and cell viability. It emits bioluminescence in the presence of the substrate, luciferin. This capped and polyadenylated mRNA is fully substituted with 5-methylcytidine and pseudouridine.
# as §2
smiles,measurement,setting,value
"CCCCCCCCCCCCN(CCCCCCCCCCCC)C(=O)CCCCCN(C)CCCCCC(=O)N(CCCCCCCCCCCC)CCCCCCCCCCCC [Compound I-11, 6,6′-(methylazanediyl)bis(N,N-didodecylhexanamide)]",pKa,[1],6.67
same,Serum IgG @ 0.3 mg/kg,[2],8.22 ± 0.84 µg/mL
same,Serum IgG @ 1.0 mg/kg,[2],47.68 ± 5.26 µg/mL
"CCCCCCCCCCCCN(CCCCCCCCCCCC)C(=O)CCCCCCCN(CCO)CCCCCCCC(=O)N(CCCCCCCCCCCC)CCCCCCCCCCCC [Compound I-37, 8,8′-((2-hydroxyethyl)azanediyl)bis(N,N-didodecyloctanamide)]",pKa,[1],6.39
same,Serum IgG @ 0.3 mg/kg,[2],1.75 ± 0.58 µg/mL
same,Serum IgG @ 1.0 mg/kg,[2],10.05 ± 2.32 µg/mL
"CCCCCCCCCCCCN(CCCCCCCCCCCC)C(=O)CCCCCN(CCCCCCO)CCCCCC(=O)N(CCCCCCCCCCCC)CCCCCCCCCCCC [Compound I-38, 6,6′-((6-hydroxyhexyl)azanediyl)bis(N,N-didodecylhexanamide)]",pKa,[1],6.48
same,Serum IgG @ 0.3 mg/kg,[2],4.71 ± 0.46 µg/mL
same,Serum IgG @ 1.0 mg/kg,[2],45.87 ± 2.33 µg/mL
"CCCCCCCCCCCCN(CCCCCCCCCCCC)C(=O)CCCCCCCN(C)CCCCCCCC(=O)N(CCCCCCCCCCCC)CCCCCCCCCCCC [Compound I-40, 8,8′-(methylazanediyl)bis(N,N-didodecyloctanamide)]",pKa,[1],6.17
same,Serum IgG @ 0.3 mg/kg,[2],16.72 ± 5.38 µg/mL
same,Serum IgG @ 1.0 mg/kg,[2],101.96 ± 4.12 µg/mL
"CCCCCCCCCCN(CCCCCCCCCC)C(=O)CCCCCCCN(CCCO)CCCCCCCC(=O)N(CCCCCCCCCC)CCCCCCCCCC [Compound I-41, 8,8′-((3-hydroxypropyl)azanediyl)bis(N,N-didecyloctanamide)]",pKa,[1],6.6
same,Serum IgG @ 0.3 mg/kg,[2],4.78 ± 1.65 µg/mL
"CCCCCCCCCCN(CCCCCCCCCC)C(=O)CCCCCCCN(CCCCCCCC(=O)N(CCCCCCCCCC)CCCCCCCCCC)CCOCCO [Compound I-42, 8,8′-((2-(2-hydroxyethoxy)ethyl)azanediyl)bis(N,N-didecyloctanamide)]",pKa,[1],6.66
same,Serum IgG @ 0.3 mg/kg,[2],3.13 ± 0.27 µg/mL
same,Serum IgG @ 1.0 mg/kg,[2],12.42 ± 3.81 µg/mL
"CCCCCCCCCCN(CCCCCCCCCC)C(=O)CCCCCCCN(CCCCCCCC(=O)N(CCCCCCCCCC)CCCCCCCCCC)CCCC(C)(C)CO [Compound I-43, 8,8′-((5-hydroxy-4,4-dimethylpentyl)azanediyl)bis(N,N-didecyloctanamide)]",pKa,[1],6.02
same,Serum IgG @ 0.3 mg/kg,[2],2.45 ± 0.66 µg/mL
same,Serum IgG @ 1.0 mg/kg,[2],9.97 ± 1.17 µg/mL
"CCCCCCCCCCN(CCCCCCCCCC)C(=O)CCCCCCCN(CCCCCCCC(=O)N(CCCCCCCCCC)CCCCCCCCCC)CCCn1ccnc1C [Compound I-44, 8,8′-((3-(2-methyl-1H-imidazol-1-yl)propyl)azanediyl)bis(N,N-didecyloctanamide)]",pKa,[1],6.69
same,Serum IgG @ 0.3 mg/kg,[2],0.59 ± 0.11 µg/mL
same,Serum IgG @ 1.0 mg/kg,[2],1.86 ± 0.27 µg/mL
"CCCCCCCCCN(CCCCCCCCC)C(=O)CCCCCCCN(C)CCCCCCCC(=O)N(CCCCCCCCC)CCCCCCCCC [Compound I-58, 8,8′-(methylazanediyl)bis(N,N-dinonyloctanamide)]",pKa,[1],6.19
same,Liver Luc @ 0.3 mg/kg,[3],18664 ± 5438 ng/g
same,Liver Luc @ 1.0 mg/kg,[3],73794 ± 14083 ng/g
CCCCCCCCCCN(CCCCCCCCCC)C(=O)CCCCCCCN(C)CCCCCCCC(=O)N(CCCCCCCCC)CCCCCCCCC [Compound I-59],pKa,[1],6.27
same,Liver Luc @ 0.3 mg/kg,[3],10786 ± 1924 ng/g
same,Liver Luc @ 1.0 mg/kg,[3],43489 ± 5698 ng/g
"CCCCCCCCCCN(CCCCCCCCCC)C(=O)CCCCCCCCCN(CCCCCCCCCC(=O)N(CCCCCCCCCC)CCCCCCCCCC)CCCNc1c(NC)c(=O)c1=O [Compound I-60, 10,10′-((3-((2-(methylamino)-3,4-dioxocyclobut-1-en-1-yl)amino)propyl)azanediyl)bis(N,N-didecyldecanamide)]",pKa,[1],6.38
same,Liver Luc @ 0.3 mg/kg,[3],2176 ± 162 ng/g
same,Liver Luc @ 1.0 mg/kg,[3],9178 ± 2483 ng/g
CCCCCCCCCCN(CCCCCCCCN(C)CCCCCCCCN(CCCCCCCCCC)C(=O)CCCCCCCCC)C(=O)CCCCCCCCC [Compound I-65],pKa,[1],6.33
same,Liver Luc @ 0.3 mg/kg,[3],3172 ± 658 ng/g
same,Liver Luc @ 1.0 mg/kg,[3],24740 ± 6297 ng/g
"CCCCCCCCC(CCCCCC)C(=O)N(C)CCCCCCCCN(C)CCCCCCCCN(C)C(=O)C(CCCCCC)CCCCCCCC (centres unmarked) [Compound I-70, N,N′-((methylazanediyl)bis(octane-8,1-diyl))bis(2-hexyl-N-methyldecanamide)]",pKa,[1],6.17
same,Liver Luc @ 0.3 mg/kg,[3],7516 ± 1487 ng/g
same,Liver Luc @ 1.0 mg/kg,[3],33238 ± 9902 ng/g
